Data on 31 compounds can be found in patent US7732457B2, “Amino-pyridines as inhibitors of β-secretase” (Wyeth LLC, priority 2005, dated 2010).

Usually melting point stands for the temperature, or range, at which the solid turns liquid. For orientation: IC50 means the midpoint of a concentration-inhibition curve. The low end stands for greater potency in that assay, the high end for weaker potency in that assay.

Where a name gives a salt, the structure may show the parent alone.

For data set [1], the target named is human BACE1 (Homo sapiens, UniProt P56817). Briefly: BACE-1 fluorescent kinetic assay (cleavage of peptide substrate WABC-6). Format: biochemical. Particulars: 10 nM enzyme, 25 μM substrate WABC-6, Na-Acetate pH 4.5, room temperature. The method, then:
Evaluation of BACE-1 Binding Affinity of Test Compounds
Fluorescent Kinetic Assay
Dilution and mixing steps: total reaction volume: 100 μL
100 μM substrate dilution in 1×PBS was prepared, and
Fluorescence Readings: Readings at λex 320 nm and λem 420 nm are taken every 40 sec for 30 min at room temperature and the linear slope for substrate cleavage rate (vi) determined.

Sequence of human BACE1 (P56817 46-501): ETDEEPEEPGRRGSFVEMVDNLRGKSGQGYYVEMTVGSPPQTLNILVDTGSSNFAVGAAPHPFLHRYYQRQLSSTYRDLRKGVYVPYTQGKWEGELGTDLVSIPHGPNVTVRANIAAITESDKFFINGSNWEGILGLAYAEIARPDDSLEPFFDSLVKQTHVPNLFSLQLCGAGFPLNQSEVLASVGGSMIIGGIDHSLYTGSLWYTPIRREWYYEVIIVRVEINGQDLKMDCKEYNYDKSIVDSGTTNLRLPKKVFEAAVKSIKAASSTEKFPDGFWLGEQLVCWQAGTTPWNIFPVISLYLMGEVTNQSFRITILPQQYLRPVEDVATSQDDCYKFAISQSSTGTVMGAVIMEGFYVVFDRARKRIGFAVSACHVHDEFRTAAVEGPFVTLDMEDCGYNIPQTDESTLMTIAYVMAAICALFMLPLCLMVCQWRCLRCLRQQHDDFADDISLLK

`Nc1cccc(Cn2c(-c3ccc(Oc4ncccn4)cc3)ccc2-c2ccccc2Cl)n1` (as salt: hydrochloride) [Example 31, 6-{2-(2-Chloro-phenyl)-5-[4-(Pyrimidin-2-yloxy)-phenyl]-pyrrol-1-ylmethyl}-pyridin-2-ylamine hydrochloride] had a melting point of 135 to 140 °C.

As to `Nc1cccc(Cn2c(-c3ccc(Oc4nccs4)cc3)ccc2-c2ccccc2Cl)n1` (as salt: hydrochloride) [Example 32, 6-{2-(2-Chloro-phenyl)-5-[4-(thiazol-2-yloxy)-phenyl]-pyrrol-1-ylmethyl}-pyridin-2-ylamine hydrochloride], the melting point lay within 126 to 130 °C.

As for `Nc1cccc(Cn2c(-c3ccc(Oc4ccc(Br)cc4)cc3)ccc2-c2ccccc2Cl)n1` (as salt: hydrochloride) [Example 38, 6-[2-[4-(4-Bromophenoxy)phenyl]-5-(2-chlorophenyl)pyrrol-1-ylmethyl]pyridin-2-ylamine hydrochloride], the melting point was in the range of 130 to 138 °C.

In the case of `CCCCCOc1ccc(-c2ccc(-c3ccccc3Cl)n2Cc2ccc(OC)c(NCCCO)n2)cc1` (as salt: hydrochloride) [Example 41, 3-{6-[2-(2-Chloro-phenyl)-5-(4-pentyloxy-phenyl)-pyrrol-1-ylmethyl]-3-methoxy-pyridin-2-ylamino}-propan-1-ol hydrochloride], the melting point lay in the range of 86 to 88 °C.

Compound `CCCCCNc1ccc(-c2ccc(-c3ccccc3Cl)n2Cc2cccc(N)n2)cc1` (as salt: hydrochloride) [Example 53, 6-[2-(2-Chloro-phenyl)-5-(4-pentylamino-phenyl)-pyrrol-1-ylmethyl]-pyridin-2-ylamine hydrochloride] registered a melting point of 145 to 147 °C.

In turn, `Cc1cccc(C(=O)Nc2ccc(-c3ccc(-c4ccccc4Cl)n3Cc3cccc(N)n3)cc2)c1` [Example 1, N-{4-[1-(6-Amino-pyridin-2-ylmethyl)-5-(2-chloro-phenyl)-1H-pyrrol-2-yl]-phenyl}-3-methyl-benzamide] returned a melting point of 108 to 118 °C. The “BACE 1 IC50 μM” value in data set [1] is listed as “D (D = >5.0 μM-0.10 = μM)”.

On to `Nc1cccc(Cn2c(-c3ccc(NC(=O)c4cccc(Br)c4)cc3)ccc2-c2ccccc2Cl)n1` [Example 2, N-{4-[1-(6-Amino-pyridin-2-ylmethyl)-5-(2-chloro-phenyl)-1H-pyrrol-2-yl]-phenyl}-3-bromo-benzamide], for which the melting point lay in the range of 116 to 122 °C. In data set [1], the “BACE 1 IC50 μM” value is reported as “D (D = >5.0 μM-0.10 = μM)”.

As to `Nc1cccc(Cn2c(-c3ccc(NC(=O)c4ccccc4)cc3)ccc2-c2ccccc2Cl)n1` [Example 3, N-{4-[1-(6-Amino-pyridin-2-ylmethyl)-5-(2-chloro-phenyl)-1H-pyrrol-2-yl]-phenyl}-benzamide], the “BACE 1 IC50 μM” value in data set [1] was “D (D = >5.0 μM-0.10 = μM)”.

Compound `Nc1cccc(Cn2c(-c3ccc(Br)cc3)ccc2-c2ccccc2Cl)n1` [Example 4, 6-[2-(4-bromo-phenyl)-5-(2-chloro-phenyl)-pyrrol-1-ylmethyl]-pyridin-2-ylamine] gave a melting point of 154 to 158 °C. This compound also displayed an IC50 in data set [1] of 1.1 to 5 µM.

Regarding `Nc1cccc(Cn2c(-c3ccc(O)cc3)ccc2-c2ccccc2Cl)n1` [Example 6, 4-[1-(6-Amino-pyridin-2-ylmethyl)-5-(2-chloro-phenyl)-1H-pyrrol-2-yl]-phenol], the melting point is 170 to 172 °C. For the same compound, in data set [1], the “BACE 1 IC50 μM” value is “D (D = >5.0 μM-0.10 = μM)”.

Regarding `CCCCCCOc1ccc(-c2ccc(-c3ccccc3Cl)n2Cc2cccc(N)n2)cc1.Cl` [Example 17, 6-[2-(2-Chloro-phenyl)-5-(4-hexyloxy-phenyl)-pyrrol-1-ylmethyl]-pyridin-2-ylamine hydrochloride], the “BACE 1 IC50 μM” value in data set [1] is “D (D = >5.0 μM-0.10 = μM)”.

As to `Cl.N#CCCCCOc1ccc(-c2ccc(-c3ccccc3Cl)n2Cc2cccc(N)n2)cc1` [Example 19, 5-{4-[1-(6-Amino-pyridin-2-ylmethyl)-5-(2-chloro-phenyl)-1H-pyrrol-2-yl]-phenoxy}-pentanenitrile hydrochloride], the melting point was 126 to 130 °C. In data set [1], the IC50 is 0.11 to 1 µM.

The compound `Cl.N#CCCCCCOc1ccc(-c2ccc(-c3ccccc3Cl)n2Cc2cccc(N)n2)cc1` [Example 20, 6-{4-[1-(6-Amino-pyridin-2-ylmethyl)-5-(2-chloro-phenyl)-1H-pyrrol-2-yl]-phenoxy}-hexanenitrile hydrochloride] gave a melting point of 98 to 106 °C. For the same compound, in data set [1], the IC50 is 1.1 to 5 µM.

On to `Nc1cccc(Cn2c(-c3ccc(-c4ccccc4)cc3)ccc2-c2ccccc2Cl)n1` [Example 27, 6-[2-Biphenyl-4-yl-5-(2-chlorophenyl)pyrrol-1-ylmethyl]pyridin-2-ylamine], for which the “BACE 1 IC50 μM” value in data set [1] is given as “D (D = >5.0 μM-0.10 = μM)”.

Take `Nc1cccc(Cn2c(-c3ccc(-c4cccnc4)cc3)ccc2-c2ccccc2Cl)n1` [Example 28]: the melting point lay within 163 to 166 °C. In addition, in data set [1], the IC50 fell in the range of 0.11 to 1 µM.

Regarding `Nc1cccc(Cn2c(-c3ccc(-c4cncnc4)cc3)ccc2-c2ccccc2Cl)n1` [Example 29, 6-[2-(2-Chloro-phenyl)-5-(4-pyrimidin-5-yl-phenyl)-pyrrol-1-ylmethyl]-pyridin-2-ylamine], in data set [1], the half-inhibitory concentration (IC50) was in the range of 0.11 to 1 µM.

In the case of `Nc1cccc(Cn2c(-c3ccc(Oc4ncccn4)cc3)ccc2-c2ccccc2Cl)n1` [Example 31, 6-{2-(2-Chloro-phenyl)-5-[4-(Pyrimidin-2-yloxy)-phenyl]-pyrrol-1-ylmethyl}-pyridin-2-ylamine hydrochloride], the IC50 in data set [1] lay in the range of 1.1 to 5 µM.

In turn, `Nc1cccc(Cn2c(-c3ccc(Oc4nccs4)cc3)ccc2-c2ccccc2Cl)n1` [Example 32, 6-{2-(2-Chloro-phenyl)-5-[4-(thiazol-2-yloxy)-phenyl]-pyrrol-1-ylmethyl}-pyridin-2-ylamine hydrochloride] came in with an IC50 in data set [1] of 0.11 to 1 µM.

Turning to `CC(=O)c1ccc(Oc2ccc(-c3ccc(-c4ccccc4Cl)n3Cc3cccc(N)n3)cc2)cc1` [Example 37, 1-(4-{4-[1-(6-Aminopyridin-2-ylmethyl)-5-(2-chlorophenyl)-1H-pyrrol-2-yl]phenoxy}-phenyl)ethanone hydrochloride], the IC50 in data set [1] lay in the range of 0.11 to 1 µM.

For the compound `Nc1cccc(Cn2c(-c3ccc(Oc4ccc(Br)cc4)cc3)ccc2-c2ccccc2Cl)n1` [Example 38, 6-[2-[4-(4-Bromophenoxy)phenyl]-5-(2-chlorophenyl)pyrrol-1-ylmethyl]pyridin-2-ylamine hydrochloride], in data set [1], the “BACE 1 IC50 μM” value was “D (D = >5.0 μM-0.10 = μM)”.

For `CCCCCOc1ccc(-c2ccc(-c3ccccc3Cl)n2Cc2ccc(OC)c(N)n2)cc1` [Example 40, 6-[2-(2-Chlorophenyl)-5-(4-pentyloxyphenyl)-pyrrol-1-ylmethyl]-3-methoxypyridin-2-ylamine hydrochloride], the “BACE 1 IC50 μM” value in data set [1] is reported as “D (D = >5.0 μM-0.10 = μM)”.

As for `CCCCCOc1ccc(-c2ccc(-c3ccccc3Cl)n2Cc2ccc(OC)c(NCCCO)n2)cc1` [Example 41, 3-{6-[2-(2-Chloro-phenyl)-5-(4-pentyloxy-phenyl)-pyrrol-1-ylmethyl]-3-methoxy-pyridin-2-ylamino}-propan-1-ol hydrochloride], the “BACE 1 IC50 μM” value in data set [1] is given as “D (D = >5.0 μM-0.10 = μM)”.

Take `CCCCCOc1ccc(-c2ccc(-c3ccccc3Cl)n2Cc2ccc(O)c(N)n2)cc1` [Example 42A, 2-Amino-6-[2-(2-chlorophenyl)-5-(4-pentyloxyphenyl)pyrrol-1-ylmethyl]pyridin-3-ol hydrochloride]: the “BACE 1 IC50 μM” value in data set [1] is on record as “D (D = >5.0 μM-0.10 = μM)”.

On to `CCCCCOc1ccc(-c2ccc(-c3ccccc3Cl)n2Cc2ccc(N)c(N)n2)cc1` [Example 42B, 6-[2-(2-Chlorophenyl)-5-(4-pentyloxyphenyl)pyrrol-1-ylmethyl]pyridine-2,3-diamine hydrochloride], for which, in data set [1], the “BACE 1 IC50 μM” value is given as “D (D = >5.0 μM-0.10 = μM)”.

For the compound `CCCCCOc1ccc(-c2ccc(-c3ccccc3Cl)n2Cc2ccc(OCCCO)c(N)n2)cc1` [Example 43A, 3-{(2-Amino-6-[2-(2-chlorophenyl)-5-(4-pentyloxyphenyl)pyrrol-1-ylmethyl]pyridin-3-yloxy}propan-1-ol hydrochloride], the “BACE 1 IC50 μM” value in data set [1] is listed as “D (D = >5.0 μM-0.10 = μM)”.

For `CCCCCOc1ccc(-c2ccc(-c3ccccc3Cl)n2Cc2ccc(OCCCC#N)c(N)n2)cc1` [Example 43B, 4-{2-Amino-6-[2-(2-chlorophenyl)-5-(4-pentyloxyphenyl)pyrrol-1-ylmethyl]-pyridin-3-yloxy}butyronitrile hydrochloride], the “BACE 1 IC50 μM” value in data set [1] was “D (D = >5.0 μM-0.10 = μM)”.

`Nc1nc(Cn2c(-c3ccc(Br)cc3)ccc2-c2ccccc2Cl)ccc1OCCO` [Example 47, 2-{2-Amino-6-[2-(4-bromo-phenyl)-5-(2-chloro-phenyl)-pyrrol-1-ylmethyl]-pyridin-3-yloxy}-ethanol] gave a melting point of 80 to 82 °C. In data set [1], this compound came in with an IC50 of 0.11 to 1 µM.

The compound `CCCCC(=O)Nc1ccc(-c2ccc(-c3ccccc3Cl)n2Cc2cccc(N)n2)cc1` [Example 52, Pentanoic acid {4-[1-(6-amino-pyridin-2-ylmethyl)-5-(2-chlorophenyl)-1H-pyrrol-2-yl]-phenyl}-amide] showed a melting point of 145 to 150 °C. Further, the IC50 in data set [1] was 1.1 to 5 µM.

The compound `CCCCCNc1ccc(-c2ccc(-c3ccccc3Cl)n2Cc2cccc(N)n2)cc1` [Example 53, 6-[2-(2-Chloro-phenyl)-5-(4-pentylamino-phenyl)-pyrrol-1-ylmethyl]-pyridin-2-ylamine hydrochloride] showed an IC50 in data set [1] of 1.1 to 5 µM.

`CCCOc1ccc(-c2ccc(-c3ccccc3Cl)n2Cc2ccc(OCCO)c(N)n2)cc1` [Example 54, 2-[(2-amino-6-{[2-(2-chlorophenyl)-5-(4-propoxyphenyl)-1H-pyrrol-1-yl]methyl}pyridine-3-yl)oxy]ethanol] registered a melting point of 89 to 92 °C. In addition, the 50% inhibitory concentration (IC50) in data set [1] lay in the range of 0.11 to 1 µM.

In turn, `CCCOc1ccc(-c2ccc(-c3ccccc3)n2Cc2cccc(N)n2)cc1` [Example 56, 6-{[2-phenyl-5-(4-propoxyphenyl)-1H-pyrrol-1-yl]methyl}pyridin-2-amine] gave a melting point of 106 to 107 °C. Besides, in data set [1], the IC50 was in the range of 1.1 to 5 µM.
